What was measured:
MpGSMT [1] = target: T1, MpGSMT (Methanohalophilus portucalensis, UniProt F6KV61); test: X-ray crystal structure, soaking; format: binding
T1 construct: gene gsmt
T1 sequence (F6KV61 1-263): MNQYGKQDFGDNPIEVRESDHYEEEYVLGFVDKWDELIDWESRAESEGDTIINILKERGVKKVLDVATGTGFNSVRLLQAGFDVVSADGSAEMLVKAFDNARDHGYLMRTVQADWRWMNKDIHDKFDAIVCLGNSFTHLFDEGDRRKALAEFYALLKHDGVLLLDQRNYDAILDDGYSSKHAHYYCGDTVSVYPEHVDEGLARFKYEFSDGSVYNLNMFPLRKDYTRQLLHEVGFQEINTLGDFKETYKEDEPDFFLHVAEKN

MpGSMT [2] = target: T2, MpGSMT (Methanohalophilus portucalensis, UniProt F6KV61, N100Q); test: methyltransferase activity with betaine; format: biochemical; settings: feedback inhibitor, allosteric; mutant has low activity
T2 construct: gene gsmt
T2 sequence (F6KV61 entry or part of it N100Q): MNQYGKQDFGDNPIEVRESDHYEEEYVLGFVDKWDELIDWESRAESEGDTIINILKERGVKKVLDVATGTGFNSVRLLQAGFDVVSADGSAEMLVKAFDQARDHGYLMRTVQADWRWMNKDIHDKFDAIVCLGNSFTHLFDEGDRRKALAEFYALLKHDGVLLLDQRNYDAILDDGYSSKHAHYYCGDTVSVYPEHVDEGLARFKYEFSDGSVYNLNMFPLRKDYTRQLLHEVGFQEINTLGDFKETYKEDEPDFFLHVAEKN

MpGSMT [3] = target: T3, MpGSMT (Methanohalophilus portucalensis, UniProt F6KV61, H104K); test: methyltransferase activity with betaine; format: biochemical; settings: feedback inhibitor, allosteric
T3 construct: gene gsmt
T3 sequence (F6KV61 entry or part of it H104K): as the sequence (F6KV61 entry or part of it N100Q) above, with Q100N, H104K counted along it

MpGSMT [4] = target: T1, MpGSMT; test: X-ray crystal structure, co-crystal; format: binding; settings: cofactor site; with sarcosine; 0.1 mM SAH
MpGSMT [5] = target: T1, MpGSMT; test: X-ray crystal structure, co-crystal and soaking; format: binding; settings: active site; with SAH (5HIL) or SAM (5GWX); inactive conformation
Excerpt: X-ray crystal structure, co-crystal and soaking on […] | crystal structure of […] in complex with the sarcosine substrate and the SAH cofactor

Q: Which results are given for `C[N+](C)(C)CC(=O)[O-]` [betaine]?
A: X-ray crystal structure, soaking (MpGSMT [1]; allosteric feedback inhibitor site near Trp40, 1.7 M betaine soak): the observed MpGSMT structure indeed harbors a pocket for interacting directly with betaine; betaine sensitivity (MpGSMT [2]): MpGSMT^N100Q displayed a decreased response to betaine; betaine sensitivity (MpGSMT [3]): MpGSMT^H104K exhibited increased sensitivity to betaine

Q: Which “X-ray crystal structure, soaking” value (MpGSMT [1]; cofactor site, binary (5HIK) or with sarcosine (5GWX), 2 mM SAM) does the source give for `C[S+](CC[C@H](N)C(=O)O)C[C@H]1O[C@@H](n2cnc3c(N)ncnc32)[C@H](O)[C@@H]1O` (stereo partly drawn) [SAM] here?
A: clear electron density maps corresponding to sarcosine and SAM in the active site

Q: With `Nc1ncnc2c1ncn2[C@@H]1O[C@H](CSCC[C@H](N)C(=O)O)[C@@H](O)[C@H]1O` [SAH] as the compound, how does the “X-ray crystal structure, co-crystal” value (MpGSMT [4]) read?
A: Clear electron density is visible for bound sarcosine and SAH

Q: How did the “X-ray crystal structure, co-crystal and soaking” value (MpGSMT [5]) turn out when `CNCC(=O)O` [sarcosine] was run?
A: crystal structure of MpGSMT in complex with the sarcosine substrate and the SAH cofactor

From publication PMC5146677, “Structural Analysis of Glycine Sarcosine N-methyltransferase from Methanohalophilus portucalensis Reveals Mechanistic Insights into the Regulation of Methyltransferase Activity” (Scientific Reports, 2016)
